In patent publication US8722578B2, “Spiroheterocyclic pyrrolidinedione herbicidal compositions” (Syngenta Participations AG, priority 2008, dated 2014):

How the values were obtained:
[1] = test system: Alopecurus myosuroides (ALOMY); test: Example A pre-emergence herbicidal activity, glasshouse pot test; type: in vivo; conditions: 480 h, rate 250 g/ha, evaluated 20 days after spraying, read-out: ALOMY pre-emergence activity (100=total damage to plant; 0=no damage to plant)
Description: (§1) Monocotyledonous and dicotyledonous test plants are sown in standard soil in pots. After cultivation for one day (pre-emergence) or after 10 days cultivation (post-emergence) under controlled conditions in a glasshouse, the plants are sprayed with an aqueous spray solution derived from the formulation of the technical active ingredient in 0.6 ml acetone and 45 ml formulation solution containing 10.6% Emulsogen EL (Registry number 61791-12-6), 42.2% N-methylpyrrolidone, 42.2% dipropylene glycol monomethyl ether (Registry number 34590-94-8) and 0.2% X-77 (Registry number 11097-66-8). The test plants are then grown in a greenhouse under optimum conditions until, 15 days later for post-emergence and 20 days for pre-emergence, the test is evaluated (100=total damage to plant; 0=no damage to plant). Test Plants: Alopecurus myosuroides (ALOMY), Avena fatua (AVEFA), Lolium perenne (LOLPE), Setaria faberi (SETFA), Digitaria sanguinalis (DIGSA), Echinochloa crus-galli (ECHCG) Pre-Emergence Activity

Avena fatua (AVEFA) [2] = test: as above; type: in vivo; conditions: 480 h, rate 250 g/ha, evaluated 20 days after spraying, read-out: AVEFA pre-emergence activity (100=total damage to plant; 0=no damage to plant)
Description: as §1

[3] = test system: Digitaria sanguinalis (DIGSA); test: as above; type: in vivo; conditions: 480 h, rate 250 g/ha, evaluated 20 days after spraying, read-out: DIGSA pre-emergence activity (100=total damage to plant; 0=no damage to plant)
Description: as §1

[4] = test system: Echinochloa crus-galli (ECHCG); test: as above; type: in vivo; conditions: 480 h, rate 250 g/ha, evaluated 20 days after spraying, read-out: ECHOG pre-emergence activity (100=total damage to plant; 0=no damage to plant)
Description: as §1

Lolium perenne (LOLPE) [5] = test: as above; type: in vivo; conditions: 480 h, rate 250 g/ha, evaluated 20 days after spraying, read-out: LOLPE pre-emergence activity (100=total damage to plant; 0=no damage to plant)
Description: as §1

Setaria faberi (SETFA) [6] = test: as above; type: in vivo; conditions: 480 h, rate 250 g/ha, evaluated 20 days after spraying, read-out: SETFA pre-emergence activity (100=total damage to plant; 0=no damage to plant)
Description: as §1

[7] = test system: Alopecurus myosuroides (ALOMY); test: Example A post-emergence herbicidal activity, glasshouse pot test; type: in vivo; conditions: 360 h, rate 125 g/ha, evaluated 15 days after spraying, read-out: ALOMY post-emergence activity (100=total damage to plant; 0=no damage to plant)
Description: as §1, with “Post-Emergence” for “Pre-Emergence”

Avena fatua (AVEFA) [8] = test: as above; type: in vivo; conditions: 360 h, rate 125 g/ha, evaluated 15 days after spraying, read-out: AVEFA post-emergence activity (100=total damage to plant; 0=no damage to plant)
Description: as §1, with “Post-Emergence” for “Pre-Emergence”

[9] = test system: Digitaria sanguinalis (DIGSA); test: as above; type: in vivo; conditions: 360 h, rate 125 g/ha, evaluated 15 days after spraying, read-out: DIGSA post-emergence activity (100=total damage to plant; 0=no damage to plant)
Description: as §1, with “Post-Emergence” for “Pre-Emergence”

[10] = test system: Echinochloa crus-galli (ECHCG); test: as above; type: in vivo; conditions: 360 h, rate 125 g/ha, evaluated 15 days after spraying, read-out: ECHOG post-emergence activity (100=total damage to plant; 0=no damage to plant)
Description: as §1, with “Post-Emergence” for “Pre-Emergence”

Lolium perenne (LOLPE) [11] = test: as above; type: in vivo; conditions: 360 h, rate 125 g/ha, evaluated 15 days after spraying, read-out: LOLPE post-emergence activity (100=total damage to plant; 0=no damage to plant)
Description: as §1, with “Post-Emergence” for “Pre-Emergence”

Setaria faberi (SETFA) [12] = test: as above; type: in vivo; conditions: 360 h, rate 125 g/ha, evaluated 15 days after spraying, read-out: SETFA post-emergence activity (100=total damage to plant; 0=no damage to plant)
Description: as §1, with “Post-Emergence” for “Pre-Emergence”

[13] = test system: Alopecurus myosuroides (ALOMY); test: Example B pre-emergence herbicidal activity, glasshouse pot test; type: in vivo; conditions: 312 h, first table (headed Post-Emergence, taken as pre-emergence), rate 250 g/ha, evaluated after 13 days, read-out: ALOMY activity (100=total damage to plant; 0=no damage to plant)
Outline: (§2)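 Pre-emergence treatment came one day after sowing and post-emergence treatment after 8 days of growth, using an acetone/water (50:50) spray containing 0.5% Tween 20. Percent injury was assessed 13 days later.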

Avena fatua (AVEFA) [14] = test: as above; type: in vivo; conditions: 312 h, first table (headed Post-Emergence, taken as pre-emergence), rate 250 g/ha, evaluated after 13 days, read-out: AVEFA activity (100=total damage to plant; 0=no damage to plant)
Outline: as §2

[15] = test system: Echinochloa crus-galli (ECHCG); test: as above; type: in vivo; conditions: 312 h, first table (headed Post-Emergence, taken as pre-emergence), rate 250 g/ha, evaluated after 13 days, read-out: ECHCG activity (100=total damage to plant; 0=no damage to plant)
Outline: as §2

Setaria faberi (SETFA) [16] = test: as above; type: in vivo; conditions: 312 h, first table (headed Post-Emergence, taken as pre-emergence), rate 250 g/ha, evaluated after 13 days, read-out: SETFA activity (100=total damage to plant; 0=no damage to plant)
Outline: as §2

[17] = test system: Alopecurus myosuroides (ALOMY); test: Example B post-emergence herbicidal activity, glasshouse pot test; type: in vivo; conditions: 312 h, rate 250 g/ha, evaluated after 13 days, read-out: ALOMY post-emergence activity (100=total damage to plant; 0=no damage to plant)
Outline: as §2

Avena fatua (AVEFA) [18] = test: as above; type: in vivo; conditions: 312 h, rate 250 g/ha, evaluated after 13 days, read-out: AVEFA post-emergence activity (100=total damage to plant; 0=no damage to plant)
Outline: as §2

[19] = test system: Echinochloa crus-galli (ECHCG); test: as above; type: in vivo; conditions: 312 h, rate 250 g/ha, evaluated after 13 days, read-out: ECHCG post-emergence activity (100=total damage to plant; 0=no damage to plant)
Outline: as §2

Setaria faberi (SETFA) [20] = test: as above; type: in vivo; conditions: 312 h, rate 250 g/ha, evaluated after 13 days, read-out: SETFA post-emergence activity (100=total damage to plant; 0=no damage to plant)
Outline: as §2

SMILES	pest or weed control at 250 g/ha [1]	pest or weed control at 250 g/ha (Avena fatua (AVEFA) [2])	pest or weed control at 250 g/ha [3]	pest or weed control at 250 g/ha [4]	pest or weed control at 250 g/ha (Lolium perenne (LOLPE) [5])	pest or weed control at 250 g/ha (Setaria faberi (SETFA) [6])	pest or weed control at 125 g/ha [7]	pest or weed control at 125 g/ha (Avena fatua (AVEFA) [8])	pest or weed control at 125 g/ha [9]	pest or weed control at 125 g/ha [10]	pest or weed control at 125 g/ha (Lolium perenne (LOLPE) [11])	pest or weed control at 125 g/ha (Setaria faberi (SETFA) [12])	pest or weed control at 250 g/ha [13]	pest or weed control at 250 g/ha (Avena fatua (AVEFA) [14])	pest or weed control at 250 g/ha [15]	pest or weed control at 250 g/ha (Setaria faberi (SETFA) [16])	pest or weed control at 250 g/ha [17]	pest or weed control at 250 g/ha (Avena fatua (AVEFA) [18])	pest or weed control at 250 g/ha [19]	pest or weed control at 250 g/ha (Setaria faberi (SETFA) [20])	also measured
CON1CCC2(CC1)NC(=O)C(c1ccc(Br)cc1Cl)=C2OC(=O)C(C)(C)C [Compound P67]	0%	40%	20%	60%	10%	50%	40%	60%	80%	70%	40%	70%	80%	60%	70%	100%	100%	60%	100%	90%	melting point: 223 to 225 °C
CCOC(=O)OC1=C(c2c(C)cc(-c3ccc(Cl)cc3)cc2C)C(=O)NC12CCN(OC)CC2 [Compound P70]	70%	70%	100%	100%	30%	100%	0%	10%	100%	100%	0%	90%	90%	90%	100%	100%	100%	100%	100%	100%	melting point: 217 to 219 °C
CON1CCC2(CC1)NC(=O)C(c1c(C)cc(-c3ccc(Cl)cc3)cc1C)C2=O (stereo not drawn) [Compound T23]	40%	50%	100%	100%	40%	100%	100%	100%	100%	100%	80%	100%	70%	90%	90%	100%	100%	100%	100%	100%	melting point: 255 to 257 °C
